Test results as given in patent US20240024412A1, “PHARMACEUTICAL COMPOSITION FOR TREATING CDI COMPRISING CLAY MINERAL COMPLEX, AND METHOD FOR PRODUCING SAME” (priority 2020, published 2024).

Tested on: C. difficile
Assay: mouse acute CDI model using dextran sulfate sodium (DSS), survival rate after oral administration
Assay type: in vivo
Settings: for Mouse survival rate (%) according to type of administered drug: 10 mg/kg of vancomycin alone
Procedure: FIG. 3 is a diagram sequentially illustrating a series of experiments of being treated with dextran sodium sulfate (DSS), being infected with C. difficile, being administered with a bentonite-vancomycin complex, and observing survival rates, in order to produce a mouse acute CDI model. […]
In order to set the mixing ratio of the bentonite-antibiotics complex, vancomycin was orally administered at concentrations of 2, 20, and 200 mg/kg in a mouse acute CDI model using DSS, and the results were shown in Table 2 below and FIG. 5.
In order to confirm a synergistic effect on CDI treatment through the bentonite-antibiotics complex, according to the daily intake, the bentonite was administered at a dose concentration of 50 mg/kg and the vancomycin was administered at a dose concentration of 5 mg/kg, and the survival rates of mice were confirmed as compared to cases of administering 10 mg/kg of vancomycin alone, 50 mg/kg of bentonite alone, and saline alone as control groups thereto.

CN[C@H](CC(C)C)C(=O)N[C@H]1C(=O)N[C@@H](CC(N)=O)C(=O)N[C@H]2C(=O)N[C@H]3C(=O)N[C@H](C(=O)N[C@H](C(=O)O)c4cc(O)cc(O)c4-c4cc3ccc4O)[C@H](O)c3ccc(c(Cl)c3)Oc3cc2cc(c3O[C@@H]2O[C@H](CO)[C@@H](O)[C@H](O)[C@H]2O[C@H]2C[C@](C)(N)[C@H](O)[C@H](C)O2)Oc2ccc(cc2Cl)[C@H]1O [Vancomycin, vancomycin]
Mouse survival rate (%) according to type of administered drug (D+14): 1/6 (17%) | Mouse survival rate (%) according to type of administered drug (D-0): 6/6 (100%) | Mouse survival rate (%) according to vancomycin dose (vancomycin 2 mg/kg orally, D+14): (20%) | Mouse survival rate (%) according to vancomycin dose (vancomycin 2 mg/kg orally, D+14, listed as vancomycin): 20% | Mouse survival rate (%) according to vancomycin dose (vancomycin 2 mg/kg orally, D-0): (100%) | Mouse survival rate (%) according to vancomycin dose (vancomycin 20 mg/kg orally, D+14): 5/5 (100%) | Mouse survival rate (%) according to vancomycin dose (vancomycin 20 mg/kg orally, D+14, listed as vancomycin): 100% | Mouse survival rate (%) according to vancomycin dose (vancomycin 20 mg/kg orally, D-0): 5/5 (100%) | Mouse survival rate (%) according to vancomycin dose (vancomycin 200 mg/kg orally, D+14): 5/5 (100%) | Mouse survival rate (%) according to vancomycin dose (vancomycin 200 mg/kg orally, D+14, listed as vancomycin): 100% | Mouse survival rate (%) according to vancomycin dose (vancomycin 200 mg/kg orally, D-0): 5/5 (100%)
